Blood glucose reduction and Emax data for two compounds are collected here from patent US8563746B2, “Cyclic benzimidazole derivatives useful as anti-diabetic agents” (Merck Sharp & Dohme Corp, priority 2008, dated 2013).

One assay relates to ob/ob and db/db mice. Particulars: following 8 weeks of administration; cited from earlier work.
Assay [1] addresses recombinant human AMPK complex 1 (containing α1β1γ1) (Homo sapiens, UniProt Q13131+Q9Y478). Put plainly: In vitro AMPK activation assay ([…]). Conditions: recombinant human AMPK complex 1 (α1β1γ1); basal activity subtracted, expressed as % maximum AMP activation. It is filed as biochemical. The protocol: The recombinant human AMPK complex 1 (containing α1β1γ1) was obtained from baculovirus expression system. Recombinant viruses were generated by cotransfection of AMPK/pBacPak9 clones with Baculogold baculovirus DNA (Pharmingen) in spodoptera frugiperda 21 cells according to the manufacturer's instructions. Each round of virus amplification was performed for 5 days in Grace's medium containing 10% serum. Virus that had been subjected to three rounds of amplification was used for all protein production procedures. To express the AMPK complex, sf21 cells were adapted to serum free medium (SF900 II, Invitrogen) by sequential dilution from serum containing stocks into SF900II medium and maintained in shaker flasks at 90 rpm at 27° C. The recombinant AMPK enzyme complex was produced by triple infection, one recombinant virus for each of the subunits, in sf21 cells under serum free conditions. Cells were infected in log phase, 1×10^6 cells/ml, at a multiplicity of infection of ˜5. Cells were harvested by centrifugation at 10,000×g for 15 minutes after 72 hours of infection with viruses. The insect cell pellet from 2 liters of culture was resuspended in 50 ml lysis buffer (20 mM Tris-HCl, 50 mM NaCl, 50 mM NaF, 30 mM Na PPi, 0.25 M sucrose, 10 mM ZnCl2, 2 mM DTT, 0.4 mg/ml digitonin) and subjected to two cycles of freeze-thaw lysis in a dry-ice ethanol bath. Insoluble material was removed by centrifugation at 10,000×g and the supernatant was fractionated with use of polyethylene glycol (PEG). The protein fraction precipitating between 2.5 and 6% PEG was used for further purification using a Blue-Sepharose step (Zhou et al, J. Clin. Invest. 108, 1167-1174, 2001).
The total in vitro AMPK activation assay volume is 50 μl in a 96-well plate. The reaction mixture contained 100 μM ATP (0.5 μCi ^33P-ATP per reaction), and 50 μM SAMS ([…]) in a buffer (20 mM HEPES, pH 7.0, 5 mM MgCl2, 0.01% Brij35). The reaction was initiated with addition of the enzyme. After 30-minute incubation at 30° C., the reaction was stopped by addition of 80 μl 1% H3PO4. Aliquots (100 μl) were transferred to 96-well MultiScreen plates (MAPHNOB50; Millipore Corp., Bedford, Mass., USA). The plate was washed three times with 1% H3PO4 followed by detection in a Top-count. The counts per minute from the basal activity (the reaction without activator) was subtracted from each well and the data were expressed as % maximum AMP activation followed by EC50 calculation.

SMILES strings stand for the structures.

Sequence of recombinant human AMPK complex 1 (containing α1β1γ1) (Q13131 whole entry): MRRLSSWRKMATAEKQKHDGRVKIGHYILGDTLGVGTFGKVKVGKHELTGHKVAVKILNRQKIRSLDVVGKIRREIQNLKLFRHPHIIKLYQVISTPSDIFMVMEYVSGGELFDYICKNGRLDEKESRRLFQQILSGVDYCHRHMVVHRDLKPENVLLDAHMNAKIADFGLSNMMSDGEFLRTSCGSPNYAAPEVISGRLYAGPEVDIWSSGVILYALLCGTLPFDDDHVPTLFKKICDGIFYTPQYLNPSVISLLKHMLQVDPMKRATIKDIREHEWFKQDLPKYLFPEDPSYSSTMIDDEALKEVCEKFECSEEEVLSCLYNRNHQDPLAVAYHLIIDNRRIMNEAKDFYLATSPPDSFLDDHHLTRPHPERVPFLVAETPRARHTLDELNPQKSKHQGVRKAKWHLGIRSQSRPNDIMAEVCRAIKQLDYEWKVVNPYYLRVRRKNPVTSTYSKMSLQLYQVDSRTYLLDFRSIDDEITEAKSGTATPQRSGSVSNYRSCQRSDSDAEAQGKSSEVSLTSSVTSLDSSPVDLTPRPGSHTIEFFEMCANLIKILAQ
Sequence of recombinant human AMPK complex 1 (containing α1β1γ1) (Q9Y478 whole entry): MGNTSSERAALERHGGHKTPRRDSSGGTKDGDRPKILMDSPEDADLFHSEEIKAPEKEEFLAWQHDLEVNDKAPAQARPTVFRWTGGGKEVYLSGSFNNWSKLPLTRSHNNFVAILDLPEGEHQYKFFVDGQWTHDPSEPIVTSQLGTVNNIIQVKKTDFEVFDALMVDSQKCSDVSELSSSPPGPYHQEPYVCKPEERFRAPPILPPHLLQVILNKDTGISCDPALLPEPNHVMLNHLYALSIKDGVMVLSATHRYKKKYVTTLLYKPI
Sequence of recombinant human AMPK complex 1 (containing α1β1γ1) (P54619 whole entry partner): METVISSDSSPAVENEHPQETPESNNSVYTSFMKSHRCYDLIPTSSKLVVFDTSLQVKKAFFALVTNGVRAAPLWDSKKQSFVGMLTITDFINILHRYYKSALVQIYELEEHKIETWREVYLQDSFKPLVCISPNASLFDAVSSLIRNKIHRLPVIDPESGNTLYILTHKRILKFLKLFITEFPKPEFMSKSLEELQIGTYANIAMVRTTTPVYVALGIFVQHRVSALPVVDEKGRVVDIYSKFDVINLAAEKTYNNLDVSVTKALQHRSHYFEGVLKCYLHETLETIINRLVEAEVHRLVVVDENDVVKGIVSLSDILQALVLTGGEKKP

As to `NC(=O)c1ncn([C@@H]2O[C@H](CO)[C@@H](O)[C@H]2O)c1N` [AICAR], the blood glucose reduction in the assay with ob/ob and db/db mice is 35%.
As a reminder, the Emax is the size of the effect at its maximum, as opposed to the concentration needed. Regarding `C[S+]([O-])c1ccc(-c2cc3nc(SCC(=O)O)[nH]c3cc2Cl)cc1` (centres unmarked) [Example 86], in assay [1], the Emax was more than 40%.
